In patent US20080154102A1, “Intraoperative imaging methods” (priority 2006, published 2008):

Experiments:
common bile duct [1] = experiment: Cholangiographic imaging with methylene blue in rats; format: in vivo; conditions: 1 mg/kg iv
Procedure: In anesthetized rats, 100 μL/kg of 1% MB (1 mg/kg) was injected intravenously via penile vein. A simultaneous color video/NIR fluorescence intraoperative imaging system was employed for quantification of fluorescence images. For multi-wavelength fluorescence imaging, 0.25 ml of 100 uM ICG (75 nmol/kg) was injected intravenously in rat and hepatic arteriography and portography can be seen.

[2] = clinical use; cited from earlier work
parathyroid gland = experiment: Parathyroid gland imaging using methylene blue; format: in vivo; conditions: 2 mg/kg over 15 minutes, along with NaHCO3
Procedure: To determine whether MB fluorescence emissions could be used to image the parathyroid gland, 2 mg/kg MB was administered over 15 minutes, along with NaHCO3, prior to surgery.

[3] = Environment-, concentration- and pH-dependence of MB fluorescence; format: physicochemical
Procedure: For the experiment shown in FIG. 1A, pure methylene blue powder was dissolved in phosphate-buffered saline (pH 7.4), 100% fetal bovine serum, or absolute methanol, at the concentration shown, and fluorescence intensity (arbitrary values) measured.
For this experiment, pure methylene blue powder was dissolved in PBS, FBS, or methanol, at the concentrations shown in FIGS. 1A-C, the spectrum of its absorbance and fluorescence emission obtained, and the peak of each identified.
Finally, the pH dependence of MB was examined, by dissolving MB in PBS (pH 6), Ascorbic Acid, HCl, and a NaHCO3-buffered solution. […] This is an important consideration because intermolecular quenching and internal absorption often limit the usable dose range of fluorescent contrast agents.

common bile duct [4] = experiment: Cholangiographic imaging with methylene blue in pigs; format: in vivo
Procedure: In anesthetized pigs, bile duct was visualized by intravenous injection of 100 μL/kg of 1% MB, or direct cannulation into the common bile duct for injection of 50 μM of MB. Fluorescence intensities of bile duct, liver (right lobe), and abdominal wall were measured at 3, 5, 10, 20, and 30 minutes following injection. For hepatic arteriography and portography, 0.06 mg/kg ICG (75 nmol/kg) is injected intravenously.

[5] = system: common bile duct, vasculature, coronary artery, myocardium; experiment: Multi-wavelength fluorescence imaging with MB and ICG; format: in vivo, pigs; conditions: pig, ICG 800 nm, MB 700 nm
Procedure: Therefore, MB was used to visualize CBD in an anesthetized pig, while ICG was used to visualize vasculature.
To evaluate the possibility of multi-wavelength fluorescent imaging, ICG and methylene blue were used.
1 mg/kg methylene blue IV injection was followed 30 min after by 0.03 mg/kg ICG IV injection. […] NIR camera exposure time was 100 msec.
Next, one of the diagonal branches of the coronary artery (D2) was clamped (white arrow), and then 1 mg/kg of methylene blue was injected intravenously; see the second row of images. Just after releasing the clamp, 0.03 mg/kg ICG was injected intravenously. […] The right-most image in the second row was created by merging the image of the coronary arteriography using methylene blue at clamping D2 and the image using ICG after declamping D2.

thoracic duct = experiment: Thoracic duct mapping in pigs; format: in vivo; conditions: 5 mL of 1% into inguinal lymph node
Procedure: In anesthetized pigs, 5 mL of 1% methylene blue was injected into an inguinal lymph node, then the thoracic duct was observed.

[6] = Fluorescence spectrometry and fluorescence quantum yield; format: physicochemical
Procedure: (§1) Absorbance spectrometry was performed with a 1-cm path length quartz cuvette in a USB2000 fiber-optic spectrometer (Ocean Optics, Dunedin, Fla.). Fluorescence spectrometry was performed with a 1-cm path length, 1.5 mL disposable methacrylate cuvette (Fisher Scientific, Hampton, N.H.) in a HR2000 fiber-optic spectrometer, and CUV-ALL-UV four-way cuvette holder (Ocean Optics), using a 655 nm laser diode light source (OPCOM O.E. Inc., Xiamen, China) with maximum output less than 5 mW. Data acquisition was performed with a computer using an OOI-Base32 spectrometer operating software package (Ocean Optics). The spectral range of the USB2000-FL spectrometer was from 350 to 1000 nm with spectral resolution of 7.6 nm, and that of the HR2000 spectrometer was from 200 to 1100 nm with a spectral resolution of 6.7 nm.
Fluorescence intensity was measured in each solvent (PBS, FBS, and methanol) at each concentration of the dye to determine the effect of the methylene blue concentration and solvents on total fluorescence yield. Fluorescence quantum yields of methylene blue in PBS, FBS, and methanol were calculated using oxazine725 in ethylene glycol (quantum yield: 19%) as a calibration standard, under the conditions of matched absorbance of methylene blue in each solvent.

[7] = system: coronary arteries and myocardium; experiment: Angiographic and myocardial perfusion imaging in rats; format: in vivo
Procedure: (§2) Male Sprague-Dawley, 300 g rats obtained from Charles River Laboratories (Wilmington, Mass.) were anesthetized with 65 mg/kg IP pentobarbital. 30 kg adult female Yorkshire pigs (E.M. Parsons & Sons, Hadley, Mass.) were induced with 4.4 mg/kg intramuscular Terazol (Fort Dodge Labs, Fort Dodge, Iowa). Pigs were intubated and maintained with 1.5-2% isoflurane.
(§3) In anesthetized rats, 0.1, 0.5 and 1 mg/kg MB were injected intravenously, and then images were taken during 15 min after injection. Signal to background ratio (SBR) (the signal of left anterior descending branch of coronary artery (LAD) relative to that of chest wall, and the signal of myocardium relative to that of chest wall) was quantified using the same region of interest (ROI) through entire observation. In anesthetized pigs, 100 μL/kg of 0.5% methylene blue (1.6 μmol/kg) was injected intravenously and then the hearts were observed using the imaging system described herein. For multi-wavelength fluorescence imaging, 0.25 ml of 100 μM ICG (75 nmol/kg) was injected intravenously in rats and 0.06 mg/kg ICG (75 nmol/kg) in pigs.
The system was adjusted to account for the optical properties of methylene blue. Briefly, the light source of the original system is composed of a white light source and a near-infrared light source. The surgical field is illuminated with both lights, and its excitation fluence rate is 5 mW/cm^2. White light and near-infrared images were able to be captured separately using a dichroic filter cube set, and these images could be merged. Images were captured and refreshed 15 times a second.
The system was modified in 3 ways for use with MB. First, the white lights were filtered with HQ675SP (Chroma Technology, Brattleboro, Vt.). Second, 4 pairs of 400 mA, 660 nm LEDs were added and filtered with HQ650/45X (chroma.) instead of the near-infrared light source. Excitation fluence rate with this new light source is 1 mW/cm^2. Third, the dichroic filter and emission filter were changed to 680 dcxr (chroma.), HQ700/35 (chroma.), respectively.

Absorbance spectrometry = format: physicochemical
Procedure: as §1

ureter = experiment: Ureteral mapping with methylene blue in pigs; format: in vivo; conditions: preclinical studies, in some cases
Procedure: In anesthetized 3 pigs, 1 mg/kg of methylene blue was injected intravenously and then the abdomen was opened surgically and ureter was identified by imaging. For pelvic arteriography, 0.06 mg/kg ICG (75 nmol/kg) was injected intravenously.

[8] = system: coronary arteries and myocardium; experiment: Angiographic and myocardial perfusion imaging in pigs; format: in vivo
Procedure: as §2, §3
The system was adjusted to account for the optical properties of methylene blue. Briefly, the light source of the original system is composed of a white light source and a near-infrared light source. The surgical field is illuminated with both lights, and its excitation fluence rate is 5 mW/cm^2. […]

SMILES: CN(C)c1ccc2nc3ccc(=[N+](C)C)cc-3sc2c1 [Methylene Blue, methylene blue]
- dye stacking in the liver (common bile duct [1]): No dye stacking in the liver was observed
- time of maximal ratio of CBD intensity relative to pancreas and liver (common bile duct [1]): around 10 minutes
- time ratio of CBD intensity stayed steady after injection (common bile duct [1]): at least 30 minutes
- time until CBD detectable after intravenous injection (common bile duct [1]): 2 to 3 min
- dose that sometimes causes severe adverse reactions (methemoglobinaemia or anaphylaxis) [2]: 7.5 mg/kg
- visibility of the parathyroid (parathyroid gland): visible
- fluorescence in acidic solutions ([3]; Ascorbic Acid, HCl): essentially no fluorescence
- fluorescence at the more basic pH ([3]; PBS (pH 6), NaHCO3-buffered solution): significant fluorescence
- pH favoring the fluorescent methylene blue form ([3]; equilibrium with leucomethylene blue): ≥ 6
- concentration of peak fluorescence intensity ([3]; intermediate concentrations): 4 to 50 µM
- CBD visualization after direct retrograde administration (common bile duct [4]; direct cannulation into CBD): successfully visualized the CBD
- identification of intrahepatic bile duct by fluorescence (common bile duct [4]; during hepatic dissection): not identifiable
- detection of common bile duct (common bile duct [4]; intravenous): detectable
- structure shown in two-channel NIR imaging [5]: shows the CBD
- thoracic duct in the color image (thoracic duct): very faint blue color
- thoracic duct in the fluorescence image (thoracic duct): clearly visualized in the fluorescence image
- Emission Wavelength Maximum, (FBS) ([6]; in FBS): 685 (685) nm
- Fluorescence Quantum Yield, (FBS) ([6]; in FBS): 2.5%
- Emission Wavelength Maximum, PBS ([6]; in PBS): 685 (685) nm
- Fluorescence Quantum Yield, PBS ([6]; in PBS): 5.5%
- Emission Wavelength Maximum, [MtOH] ([6]; in methanol): [681] nm
- Fluorescence Quantum Yield, [MtOH] ([6]; in methanol): [9.5] %
- emission wavelength of MB ([6]; peak shifts as a function of dye concentration, listed as MB): 690-700 nm
- detection of peripheral branches and coronary vein [7]: not detectable
- intravascular (arterial) signals ([7]; 0.1 mg/kg intravenously): not detected
- detection of coronary arteries ([7]; 0.5 and 1.0 mg/kg intravenously): could be detected
- homogenous signal from the heart wall ([7]; all loading doses): detectable
- Excitation Wavelength Maximum, (FBS) (Absorbance spectrometry; in FBS): 666 nm
- Molar Extinction Coefficient, (FBS) (Absorbance spectrometry; in FBS): 86500 M⁻¹ cm⁻¹
- Excitation Wavelength Maximum, PBS (Absorbance spectrometry; in PBS): 665 nm
- Molar Extinction Coefficient, PBS (Absorbance spectrometry; in PBS): 71500 M⁻¹ cm⁻¹
- Excitation Wavelength Maximum, [MtOH] (Absorbance spectrometry; in methanol): [653] nm
- Molar Extinction Coefficient, [MtOH] (Absorbance spectrometry; in methanol): [71500] M^−1cm^−1
- performance in the ureter (ureter): less than optimal performance
- signal of myocardium distal to occlusion vs well-perfused myocardium ([8]; ligation of diagonal branch of left anterior descending artery): five-fold lower signal
- average SBR of whole heart wall fluorescence ([8]; pig, intravenous injection via external jugular vein): about 1.5
